Measured values from patent US20120238915A1, “SOUND WAVE TREATMENT PLATFORM AND SOUND WAVE TREATMENT METHOD” (priority 2011, published 2012).

Tests used:
[1] = system: non-operable pancreatic cancer
[2] = system: metastatic pancreatic cancer to liver; assay: Example 1: patient treated with non-focused sound waves with Bleomycin; format: in vivo, human; conditions: 30 mg Bleomycin + sound waves 0.3 MHz
Description: person one was diagnosed with metastatic pancreatic cancer to liver. Treatment history was as follows: Gemcitabine, Tykerb, Xeloda, and 6000R radiation therapy. Despite multiple treatments, patient's condition continues to worsen with increased abdominal pain. The patient was taking pain medication with constipation.
The patient was treated according to the present invention with 30 mg Bleomycin (Frequency: 0.3 MHz; power intensity: less than 2 W/cm^2; duration: less than 30 minutes). […] Their tumor marker CA19-9 decreased from 1465 to 406 in 9 days after the treatment. They remained pain free for 150 days after the treatment till their death clue to organ failure.

[3] = system: metastatic pancreatic cancer to liver; assay: Example 4: patient treated with non-focused sound waves with Bleomycin; format: in vivo, human; conditions: 30 mg Bleomycin + sound waves 0.3 MHz
Description: person three was diagnosed with metastatic pancreatic cancer to liver and has been treated with Palliative bypass operation. No chemotherapy history. They were in very terminal stage with severe jaundice and great pain. They used Fetanyl patch and additional pain medication. The patient was treated according to the present invention with 30 mg Bleomycin (Frequency: 0.3 MHz; power intensity: less than 2 W/cm^2; duration: less than 30 minutes). […] They remained pain free for 4 days till their death due to hepatic failure.

[4] = system: metastatic breast cancer; assay: Example 6: patient treated with non-focused sound waves with Bleomycin; format: in vivo, human; conditions: 30 mg Bleomycin + sound waves 0.3 MHz
Description: person two was diagnosed with metastatic breast cancer, and complained of three weeks left shoulder pain.
(§1) The patient was treated according to the present invention with 30 mg Bleomycin (Frequency: 0.3 MHz; power intensity: less than 2 W/cm^2; duration: less than 30 minutes).

[5] = system: metastatic oral cancer to the face; assay: Example 7: patient treated with non-focused sound waves with Bleomycin; format: in vivo, human; conditions: 30 mg Bleomycin + sound waves 0.3 MHz
Description: person six was diagnosed with metastatic oral cancer to the face, and complained of severe facial pain. They have been treated with multiple surgery and chemoradiation. They presented with a large area of metastatic facial mass, and their right eye was bulging due to tumor infiltration.
as §1

[6] = system: terminal hepatoma; assay: Example 8: patient treated with non-focused sound waves with Bleomycin; format: in vivo, human; conditions: 30 mg Bleomycin + sound waves 0.3 MHz
Description: person four was diagnosed with terminal hepatoma and liver pain.
as §1

[7] = system: recurrent breast cancer and metastasis to the liver; assay: Example 9: patient treated with non-focused sound waves with Bleomycin; format: in vivo, human
Description: person two was diagnosed with recurrent breast cancer and metastasis to the liver. They had multiple chemotherapy and target medicine treatment.
The patient was treated twice (one week apart) according to the present invention with 30 mg Bleomycin each time (Frequency: 0.3 MHz; power intensity: less than 2 W/cm^2; duration: less than 30 minutes (each time)). […] Their right upper quadrant pain resolved and remained pain free over 18 months till last follow up.

[8] = system: terminal metastatic ovarian cancer; assay: Example 10: patient treated with non-focused sound waves with Bleomycin; format: in vivo, human
Description: person five was diagnosed with terminal metastatic ovarian cancer with colostomy and complained of abdominal pain.
The patient was treated twice (one week apart) according to the present invention combined with 30 mg Bleomycin each time (Frequency: 0.3 MHz; power intensity: less than 2 W/cm^2; duration: less than 30 minutes (each time)). […] They remained pain free for over 8 months till their death due to sepsis.

[9] = system: recurrent pancreatic cancer; conditions: human, in vivo
[10] = system: metastatic pancreatic cancer to liver; assay: Example 3: patient treated with non-focused sound waves with Bleomycin; conditions: 30 mg Bleomycin + sound waves 0.3 MHz
[11] = person two, 30 mg Bleomycin + sound waves 0.3 MHz

## Nc1ccn([C@@H]2O[C@H](CO)[C@@H](O)C2(F)F)c(=O)n1 [Gemcitabine]
[1]; during at least four months of weekly Gemcitabine, after Bleomycin + sound wave treatments
  tumor growth in diameter: 1.4 cm

## Bleomycin
[2]; decreased from 1465, in 9 days after the treatment
  tumor marker CA19-9: 406
[2]; person one, after the treatment
  constipation symptom: relieved
[2]; person one, one treatment
  pain medication use after treatment: has not taken any pain medication since the treatment
  side effect: no side effect was observed
[2]; person one, one treatment, <2 W/cm^2, <30 min
  patient's pain: dissolved
[2]; till death due to organ failure
  remained pain free after the treatment: 150 days
[3]
  pain medication use after treatment: without using anymore pain medication
[3]; person three
  side effect: no side effect was observed
[3]; person three, one treatment
  time in which pain vanished: 6 h
[3]; person three, one treatment, <2 W/cm^2, <30 min
  pain: totally vanished
[3]; till death due to hepatic failure
  remained pain free: 4 days
[4]
  pain free duration: over seven months
[4]; person two, one treatment, <2 W/cm^2, <30 min
  side effect: no side effect was observed
[4]; till death due to brain metastasis
  shoulder pain: did not have shoulder pain
[5]
  facial tumor size: decreased in size
  right eye (bulging due to tumor infiltration): less bulging and could rotate
[5]; person six
  side effect: no side effect
[5]; person six, one treatment, <2 W/cm^2, <30 min
  facial pain: totally resolved
[5]; till last follow up
  remained pain free: over 33 days
[6]
  pain free till death: 14 days
[6]; person four
  side effect: no side effect
[6]; person four, one treatment, <2 W/cm^2, <30 min
  right quadrant pain: vanished
[7]; 30 mg Bleomycin twice + sound waves 0.3 MHz
  right upper quadrant pain: resolved
[7]; decreased from 7 cm, after the first treatment
  liver tumor diameter (imaging study), second tumor: 4 cm
[7]; decreased from 10 cm, after the first treatment
  liver tumor diameter (imaging study), first tumor: 7 cm
[7]; [11]
  side effect: no side effect
[7]; person two, after the first of two treatments one week apart, 30 mg Bleomycin each + sound waves 0.3 MHz, <2 W/cm^2, <30 min
  liver tumors size: significantly decreased in size
[7]; several follow up imaging studies, 30 mg Bleomycin twice + sound waves
  follow up imaging studies: stable liver metastasis
[7]; till last follow up, 30 mg Bleomycin twice + sound waves
  remained pain free: over 18 months
[8]; person five, 30 mg Bleomycin + sound waves 0.3 MHz
  side effect: no side effect
[8]; person five, after the first of two treatments one week apart, 30 mg Bleomycin each + sound waves 0.3 MHz, <2 W/cm^2, <30 min
  abdominal pain: resolved
[8]; till death due to sepsis, 30 mg Bleomycin twice + sound waves
  remained pain free: over 8 months
[9]
  body weight: increased
  pain medication use after treatment: has not taken any pain medication since the first treatment till their death
  pain scale: 0-1
  physical activity: returned to near normal
  remained pain free after the treatment: 170 days
  side effect: no side effect was observed
  survival after first diagnosis: lived two years after their first diagnosis
[1]; after Bleomycin + sound wave treatments and weekly Gemcitabine
  jaundice: did not have jaundice
[1]; insulin dependent diabetic patient, after the treatment, remained till death
  blood sugar: returned to normal level without using insulin
[1]; [11]
  side effect: no side effect was observed
[1]; person two, after the first treatment, 30 mg Bleomycin + sound waves 0.3 MHz, <2 W/cm^2, <30 min
  pancreatic region pain: resolved
[1]; till death, 30 mg Bleomycin three times (third followed by 1000 mg Gemcitabine) + sound waves
  remained pain free after the treatment: 183 days
[10]
  pain free: 32 days
[10]; person seven
  side effect: no side effect was observed
[10]; person seven, one treatment, <2 W/cm^2, <30 min
  patient's pain: totally dissolved
[10]; until death due to sepsis
  pain medication use after treatment: without using any pain medication
